Data reported in patent US7608604B2, “Antiparasitic agents” (Pfizer Limited, priority 2007, dated 2009).

tested on: Haemonchus contortus L3; test: Haemonchus contortus L3 (HcL3) in vitro test; format: cell-based; conditions: minimum effective dose; exsheathed L3 larvae in vitro, 37° C., observed up to 4 days, n=2
Method: The Haemonchus contortus L3 (HcL3) test is used to measure the biological activities of the compounds claimed. The assay involves in vitro testing against H. contortus conducted according to the following general procedure.
HcL3 larvae were collected from infected sheep and, after cleaning, stored in water at 12° C. for up to one month. Viable infective larvae were exsheathed using 10% hypochlorite in Glucose Tyrodes balanced salt solution containing antibiotics and resuspended in basal medium (20 g/l bacto-tryptone, 5 g/l yeast extract, 57 g/l glucose, 0.8 g/l di-Potassium hydrogen orthophosphate, 0.8 g/l potassium dihydrogen orthophosphate and […] Hepes with antibiotics). 95 μl worm suspension was added to each well of a 96 well plate.
Test compounds were dissolved in dimethylsulfoxide to give a working stock solution of 20 mg/ml. The stock concentration was diluted 1:10 in Basal media to give 2.0 mg/ml (10% DMSO). 5 μl of the stock compound solution was added to the worm suspension to give a final concentration of 100 μg/ml. Plates were sealed with pressure sensitive film and incubated at 37° C. Observations were made 2 hrs, 24 hrs, 48 hrs, 72 hrs and 4 days post-treatment using an inverted microscope. Activity was recorded if a significant proportion of the worms were dead or adversely affected by the compound when compared to the control well containing 1% DMSO. Compounds were initially tested at 100 μg/ml, wherefrom relevant dose responses (100, 30, 10, 3, 1, 0.3, 0.1 μg/ml) were conducted in duplicate experiments to generate n=2. Data was recorded as minimum effective dose.

| SMILES | in vitro H.c. (L3) MED [µg/mL] |
| --- | --- |
| CC(C#N)(COc1cc(C#N)ccc1C(F)(F)F)NC(=O)c1ccc(S(F)(F)(F)(F)F)cc1 (racemic) [Example 1a, N-{1-cyano-2-[5-cyano-2-(trifluoromethyl)phenoxy]-1-methylethyl}-4-(pentafluorothio)benzamide] | 3 |

same assay, conditions: minimum effective dose; table of Examples 5-11

| SMILES | H.c. (L3) MED [µg/mL] |
| --- | --- |
| CC(C#N)(COc1ccc(Br)cc1C(F)(F)F)NC(=O)c1ccc(S(F)(F)(F)(F)F)cc1 (stereo not drawn) [Example 10, N-{2-[4-Bromo-2-(trifluoromethyl)phenoxy]-1-cyano-1-methylethyl}-4-(pentafluorothio)benzamide] | 10 |
| CC(C#N)(COc1ccc(C#N)cc1Cl)NC(=O)c1ccc(S(F)(F)(F)(F)F)cc1 (stereo not drawn) [Example 5, N-[2-(2-Chloro-4-cyanophenoxy)-1-cyano-1-methylethyl]-4-(pentafluorothio)benzamide] | 3 |

same assay, conditions: minimum effective dose; table of Examples 13a-42; 13a/b, 27a/b, 29a/b, 33a/b tested as mixtures of regioisomers

| SMILES | H.c. (L3) MED [µg/mL] |
| --- | --- |
| CC(C#N)(COc1ccc(F)cc1C#N)NC(=O)c1ccc(S(F)(F)(F)(F)F)cc1 (stereo not drawn) [Example 27a, N-[1-Cyano-2-(2-cyano-4-fluorophenoxy)-1-methylethyl]-4-(pentafluorothio)benzamide] | 3 |
| CC(C#N)(COc1ccc(F)c(C#N)c1)NC(=O)c1ccc(S(F)(F)(F)(F)F)cc1 (stereo not drawn) [Example 27b, N-[1-Cyano-2-(3-cyano-4-fluorophenoxy)-1-methylethyl]-4-(pentafluorothio)benzamide] | 3 |
| CC(C#N)(COc1cccc(Cl)c1C#N)NC(=O)c1ccc(S(F)(F)(F)(F)F)cc1 (stereo not drawn) [Example 26, N-[2-(3-Chloro-2-cyanophenoxy)-1-cyano-1-methylethyl]-4-(pentafluorothio)benzamide] | 10 |
| CC(C#N)(COc1cc(Cl)ccc1Cl)NC(=O)c1ccc(S(F)(F)(F)(F)F)cc1 (stereo not drawn) [Example 38, N-[1-Cyano-2-(2,5-dichlorophenoxy)-1-methylethyl]-4-(pentafluorothio)benzamide] | 10 |
| CC(C#N)(COc1cc(C#N)ccc1Br)NC(=O)c1ccc(S(F)(F)(F)(F)F)cc1 (stereo not drawn) [Example 32, N-[2-(2-Bromo-5-cyanophenoxy)-1-cyano-1-methylethyl]-4-(pentafluorothio)benzamide] | 3 |
| CC(C#N)(COc1cccc(Cl)c1Cl)NC(=O)c1ccc(S(F)(F)(F)(F)F)cc1 (stereo not drawn) [Example 42, N-[1-Cyano-2-(2,3-dichlorophenoxy)-1-methylethyl]-4-(pentafluorothio)benzamide] | 30 |
| CC(C#N)(COc1ccc(Br)cc1F)NC(=O)c1ccc(S(F)(F)(F)(F)F)cc1 (stereo not drawn) [Example 34, N-[2-(4-Bromo-2-fluorophenoxy)-1-cyano-1-methylethyl]-4-(pentafluorothio)benzamide] | 10 |
| CC(C#N)(COc1cc(F)cc(Cl)c1)NC(=O)c1ccc(S(F)(F)(F)(F)F)cc1 (stereo not drawn) [Example 23, N-[2-(3-Chloro-5-fluorophenoxy)-1-cyano-1-methylethyl]-4-(pentafluorothio)benzamide] | 30 |
| CC(C#N)(COc1ccc(I)cc1)NC(=O)c1ccc(S(F)(F)(F)(F)F)cc1 (stereo not drawn) [Example 20, N-[1-Cyano-2-(4-iodophenoxy)-1-methylethyl]-4-(pentafluorothio)benzamide] | 3 |
| CC(C#N)(COc1cc(Cl)ccc1C#N)NC(=O)c1ccc(S(F)(F)(F)(F)F)cc1 (stereo not drawn) [Example 24, N-[2-(5-Chloro-2-cyanophenoxy)-1-cyano-1-methylethyl]4-(pentafluorothio)benzamide] | 3 |

same assay, conditions: minimum effective dose; table of Examples 45-49

| SMILES | H.c. (L3) MED [µg/mL] |
| --- | --- |
| CC(C#N)(COc1ccc(C(N)=O)cc1Cl)NC(=O)c1ccc(S(F)(F)(F)(F)F)cc1 (stereo not drawn) [Example 49] | 10 |
| CC(C#N)(COc1cc(C#N)ccc1C#N)NC(=O)c1ccc(S(F)(F)(F)(F)F)cc1 (stereo not drawn) [Example 46, N-[1-Cyano-2-(2,5-dicyanophenoxy)-1-methylethyl]-4-(pentafluorothio)benzamide] | 10 |
